{
  "source": "patent US20220411794A1",
  "about": "“RNA OLIGONUCLEOTIDES FOR PREVENTING AGGREGATION OF PROTEINS” (Universitaet Wien, priority 2019, published 2022)",
  "molecular_target": "T1, human insulin (Homo sapiens, UniProt P01308)",
  "T1 construct": "purchased SIGMA",
  "T1 sequence (P01308 25-54 limits assumed)": "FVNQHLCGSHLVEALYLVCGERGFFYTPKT",
  "test": "Human insulin aggregation assay (relative solubility)",
  "assay_type": "physicochemical",
  "conditions": "86 μM insulin : 20 μM RNA (molar ratio […]:1)",
  "experimental": "The insulin aggregation assay was performed in 150 mM Tris-HCl pH 7.5. Aggregation was monitored at 360 nm (excitation: 1 nm bandwidth, emission: 10 nm bandwidth) in macro-cuvettes (1500 μl) with a pathlength of 10 mm. 86 μM human insulin (SIGMA) with or without 20 μM RNA were pre-incubated at 30° C. and the aggregation reaction was started by the addition of dithiothreitol (DTT) to a final concentration of 15 mM.",
  "data": [
    {"substance": "RNA1: GUGGAGGCGCUGUACCUGGUGUGCGGAGAGCGCGGC; fragment of native own mRNA coding for insulin β-chain region VEALYLVCGERG (RNA, backbone not given here)", "values": [
      {"measurement": "increase in the relative solubility of insulin", "value": 21, "unit": "%"}
    ]}
  ]
}
